Legend:
[1] = target: T1, recombinant human soluble form of COMT (hS-COMT) (Homo sapiens, UniProt P21964); experiment: Determination of COMT inhibiting activity in vitro; format: biochemical; settings: tight binding inhibition constant, 25 μM SAM, substrate esculetin 10 μM, pH 7.4, 37° C.
T1 sequence (P21964 1-221 isoform P21964-2): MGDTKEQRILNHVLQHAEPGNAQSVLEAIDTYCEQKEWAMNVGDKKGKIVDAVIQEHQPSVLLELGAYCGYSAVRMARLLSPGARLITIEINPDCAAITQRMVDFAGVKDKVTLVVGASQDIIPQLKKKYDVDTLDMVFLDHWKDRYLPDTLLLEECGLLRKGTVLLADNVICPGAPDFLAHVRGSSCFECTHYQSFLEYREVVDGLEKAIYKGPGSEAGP

[2] = Determination of metabolic stability in vitro (glucuronidation); format: in vitro ADME; settings: entacapone = 1.00; human liver microsomes 0.4 mg/ml, UDPGA 5 mM, test substance 100 μM, 60 min at 37° C.; glucuronide HPLC area relative to entacapone
[3] = system: isolated rat liver mitochondria; experiment: Determination of uncoupling of oxidative phosphorylation in vitro; settings: threshold value of uncoupling (sample/Control slope ratio exceeding 2); oxygen consumption of rat liver mitochondria; tested 1-50 μM

Ki [1] [nM] | Relative glucuronidation [2] | SMILES | Uncoupling [3] [µM]
0.6 | 0.03 | O=C(O)c1cccc(NC(=O)c2sc3c([N+](=O)[O-])c(O)c(O)cc3c2Cl)c1 [Compound of example 12, 3-[(3-Chloro-5,6-dihydroxy-7-nitro-benzo[b]thiophene-2-carbonyl)-amino]-benzoic acid] | –
1.5 | – | CCOC(=O)c1sc2c([N+](=O)[O-])c(O)c(O)cc2c1Cl [Compound of example 5, 3-Chloro-5,6-dihydroxy-7-nitro-benzo[b]thiophene-2-carboxylic acid ethyl ester] | –
1.5 | – | O=[N+]([O-])c1c(O)c(O)cc2c(Cl)csc12 [Compound of example 7, 3-Chloro-5,6-dihydroxy-7-nitro-benzo[b]thiophene] | –
2 | 0.26 | O=C1OCc2c1cc(O)c(O)c2[N+](=O)[O-] [Compound of example 23, 5,6-Dihydroxy-4-nitro-3H-isobenzofuran-1-one] | –
0.2 | – | O=C(O)c1ccc(NC(=O)c2sc3c([N+](=O)[O-])c(O)c(O)cc3c2Cl)cc1 [Compound of example 13, 4-[(3-Chloro-5,6-dihydroxy-7-nitro-benzo[b]thiophene-2-carbonyl)-amino]-benzoic acid] | –
0.9 | <0.01 | O=C(c1cc2cc(O)c(O)c([N+](=O)[O-])c2s1)N1CCOCC1 [Compound of example 16, (5,6-Dihydroxy-7-nitro-benzo[b]thiophen-2-yl)-morpholin-4-yl-methanone] | –
0.6 | – | O=C(c1sc2c([N+](=O)[O-])c(O)c(O)cc2c1Cl)N1CCOCC1 [Compound of example 8, (3-Chloro-5,6-dihydroxy-7-nitro-benzo[b]thiophen-2-yl)-morpholin-4-yl-methanone] | –
– | – | O=[N+]([O-])c1ccc(O)c([N+](=O)[O-])c1 [DNP, dinitrophenol] | 10

Source: patent publication US8318785B2, “Pharmaceutical compounds” (Orion Corporation, priority 2005, dated 2012)
